Source: ChEMBL document CHEMBL5030535, “Conjugates Derived from Lapatinib Derivatives with Cancer Cell Stemness Inhibitors Effectively Reversed Drug Resistance in Triple-Negative Breast Cancer” (J Med Chem, 2021)
pIC50: −log10 of the molar value. The source made the active and inactive calls. The calls are words filed in the database; no cut-off is given here.

Key:
[1] = tested on: MDA-MB-231; experiment: Antiproliferative activity against drug-tolerant human MDA-MB-231/lapatinib cells assessed as CD44+/CD24- cells measured at 20 uM after 24 hrs by MTT assay; assay type: functional
[2] = tested on: MDA-MB-231; experiment: Inhibition of Wnt/beta-Catenin signaling in drug-tolerant human MDA-MB-231/lapatinib cells assessed as reduction in beta-catenin level at 20 uM incubated for 24 hrs by Western blot analysis
[3] = tested on: MDA-MB-231; experiment: Inhibition of Wnt/beta-Catenin signaling in drug-tolerant human MDA-MB-231/lapatinib cells assessed as reduction in p-GSK3beta level at 20 uM incubated for 24 hrs by Western blot analysis
[4] = tested on: MDA-MB-231; experiment: Inhibition of cell migration in human drug-tolerant MDA-MB-231/lapatinib cells at 20 uM; assay type: functional
[5] = tested on: HUVEC; experiment: Antiproliferative activity against human HUVEC cells assessed as inhibition of cell growth in measured after 72 hrs by MTT assay; assay type: cell-based
[6] = tested on: MCF7; experiment: Antiproliferative activity against human MCF7 cells assessed as inhibition of cell growth measured after 72 hrs by MTT assay; assay type: functional, cell-based; conditions: MCF7, 72 h
[7] = tested on: MDA-MB-231; experiment: Antiproliferative activity against human MDA-MB-231 cells assessed as inhibition of cell growth measured after 72 hrs by MTT assay; assay type: functional, cell-based; conditions: MDA-MB-231, 72 h
[8] = tested on: MDA-MB-231; experiment: Antiproliferative activity against human drug tolerant MDA-MB-231/lapatinib cells assessed as inhibition of cell growth in measured after 72 hrs by MTT assay; assay type: functional, cell-based; conditions: MDA-MB-231, 72 h
[9] = tested on: MDA-MB-231; experiment: Antiproliferative activity against drug-tolerant human MDA-MB-231/lapatinib cells assessed as CD44-positive cells measured after 24 hrs by MTT assay; assay type: functional, cell-based; conditions: MDA-MB-231, 24 h
[10] = Resistant factor, ratio of IC50 for antiproliferative activity against drug-tolerant human MDA-MB-231 cells to IC50 for human MDA-MB-231 cells; assay type: functional
[11] = target: T1, Aldehyde dehydrogenase 1A1 (Homo sapiens, UniProt P00352); experiment: Inhibition of ALDH1A1 in human drug-tolerant MDA-MB-231/lapatinib cells assessed as after 24 hrs
T1 sequence (P00352 whole entry): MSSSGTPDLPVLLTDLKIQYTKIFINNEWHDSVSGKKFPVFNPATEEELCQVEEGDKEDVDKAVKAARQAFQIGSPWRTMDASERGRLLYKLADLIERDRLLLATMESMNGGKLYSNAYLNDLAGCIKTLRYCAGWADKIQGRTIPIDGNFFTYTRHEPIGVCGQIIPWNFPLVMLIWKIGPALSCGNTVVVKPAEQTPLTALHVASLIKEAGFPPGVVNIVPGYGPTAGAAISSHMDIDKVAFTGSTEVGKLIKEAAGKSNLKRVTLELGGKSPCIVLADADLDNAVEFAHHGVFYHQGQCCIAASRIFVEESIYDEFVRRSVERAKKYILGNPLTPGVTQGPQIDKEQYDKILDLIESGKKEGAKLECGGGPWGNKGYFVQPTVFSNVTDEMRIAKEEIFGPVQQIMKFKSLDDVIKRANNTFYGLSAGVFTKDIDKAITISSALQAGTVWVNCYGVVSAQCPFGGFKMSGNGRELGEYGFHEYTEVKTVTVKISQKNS

Structure (SMILES)	inhibition at 20 µM [1] [%]	inhibition [2]	inhibition [3]	inhibition at 20 µM [4] [%]	pIC50 [5]	pIC50 [6]	pIC50 [7]	pIC50 [8]	pIC50 [9]	Ratio IC50 [10]	pIC50 [11]
CS(=O)(=O)CCNCc1ccc(-c2ccc3ncnc(Nc4ccc(OCc5cccc(F)c5)c(Cl)c4)c3c2)o1 [LAPATINIB]	15.7	Active	Active	52.6	4.33	4.90	5.23	4.53	4.51		
CC(OC(=O)CCC(=O)N(CCS(C)(=O)=O)Cc1ccc(-c2ccc3ncnc(Nc4ccc(OCc5cccc(F)c5)c(Cl)c4)c3c2)o1)c1cc2c(o1)C(=O)c1ccccc1C2=O (stereo not given)					4.25	5.40	5.44	5.24		1.62	
OCCN1CCN(CCCN2c3ccccc3Sc3ccc(Cl)cc32)CC1 [PERPHENAZINE]					4.01	4.45	4.52	4.50		1.05	6.28
CS(=O)(=O)CCN(Cc1ccc(-c2ccc3ncnc(Nc4ccc(OCc5cccc(F)c5)c(Cl)c4)c3c2)o1)C(=O)CCC(=O)OCCN1CCN(CCCN2c3ccccc3Sc3ccc(C(F)(F)F)cc32)CC1					4.40	5.20	5.53	5.47		1.17	
